From patent US20140066365A1, “USE OF CALIXARENES ASSOCIATED WITH AN ANTIBIOTIC IN THE TREATMENT OF BACTERIAL INFECTIONS” (priority 2011, published 2014)
Like-named read-outs stand apart in the source and are kept apart here.

What was measured:
[1] = tested on: SaR1: Meticillin-Resistant Staphylococcus aureus without Associated Resistance; assay: Antibiogram, inhibition diameter (Table D1); assay type: cell-based
Experimental: (§1) The bacterial and antibiogramidentification is carried out by the VITEK 2 system (bioMérieux)

[2] = MIC of the compounds used alone, microdilution in a liquid medium (CLSI); assay type: cell-based, Staphylococcus aureus; conditions: Staphylococcus aureus, MRSA; antibiotic alone (second value of cell); SaR4; read-out: MIC
Description: (§2) The MICs of the antibiotics were previously defined for each strain, by the method of microdilution in a liquid medium (CLSI (Clinical and Laboratory Standards Institute), 2003).

[3] = tested on: MRSA strain having a resistance to the aminoglycosides and fluoroquinolones (SaR3); assay: as above; assay type: cell-based, Staphylococcus aureus; conditions: Staphylococcus aureus, MRSA; antibiotic alone (second value of cell); SaR3; read-out: MIC
Description: as §2

[4] = tested on: MRSA strain without associated resistance (SaR1); assay: as above; assay type: cell-based, Staphylococcus aureus; conditions: Staphylococcus aureus, MRSA; antibiotic alone (second value of cell); SaR1; read-out: MIC
Description: as §2

[5] = tested on: Escherichia coli, Staphylococcus aureus and Pseudomonas aeruginosa strains; assay: Chessboard technique, summary statements over all strains and combinations tested; assay type: cell-based; conditions: strain not stated
Description: 1.3. Procedure: Chessboard Technique
The same procedure is followed for the Cx1. […] Thus 64 ATB/Cx1 combinations are obtained.
The FIC (Fractional Inhibitory Concentration Index) value is defined by the following formula: […]
When FIC≦0.5, there is a synergistic effect between antibiotic A and antibiotic B.
When 0.5<FIC≦1, there is an additive effect between antibiotic A and antibiotic B.
When 1<FIC≦4, there is an indifferent effect between antibiotic A and antibiotic B.
When FIC>4, there is an antagonistic effect between antibiotic A and antibiotic B.
For each strain and each antibiotic/Cx1 combination, the experiments were repeated a minimum of 3 times.

[6] = tested on: Staphylococcus aureus strain ATCC 29213 (wild type); assay: MIC of the compounds used alone, microdilution in a liquid medium (CLSI); assay type: cell-based; conditions: Staphylococcus aureus, ATCC29213; antibiotic alone (second value of cell); S. aureus ATCC 29213; read-out: Initial MICs
Description: as §2

[7] = tested on: SaR1: Meticillin-Resistant Staphylococcus aureus without Associated Resistance; assay: Antibiogram, MIC by the VITEK 2 system; assay type: cell-based; conditions: SaR1
Experimental: as §1

[8] = tested on: SaR4: Meticillin-Resistant Staphylococcus aureus; assay: Antibiogram, MIC by the VITEK 2 system; assay type: cell-based; conditions: SaR4; for MIC: Staphylococcus aureus, read-out: MIC
Experimental: (§3) The bacterial and antibiogramidentification is carried out by the VITEK 2 system (bioMérieux) and by the disk diffusion technique

[9] = tested on: SaR3: Meticillin-Resistant Staphylococcus aureus; assay: Antibiogram by the disk diffusion technique; assay type: cell-based
Experimental: as §3

MIC [2]: 4 µg/mL
MIC [3]: 0.25 µg/mL
MIC [4]: 0.5 µg/mL
MIC [6]: 2 µg/mL
MIC mg/L ([7]; Table D2): ≦0.5 mg/L
MIC ([7]; Staphylococcus aureus, Table D1, read-out: MIC): ≤ 0.5 µg/mL
MIC ([8]; Table F1): ≤ 1 µg/mL
MIC ([8]; Table F2, MIC): ≤ 1 µg/mL
Compound: CC(=O)O[C@H]1C[C@@]2(C)[C@@H](C[C@@H](O)[C@H]3[C@@]4(C)CC[C@@H](O)[C@@H](C)[C@@H]4CC[C@@]32C)/C1=C(\CCC=C(C)C)C(=O)O [Fusidic acid]
Diameter [1]: 28 mm
Results ([1]; from diameter, against Dmin Dmax): Susceptible
interaction between the antibiotic and Cx1 [5]: synergism
CA-SFM Interpretation ([7]; Cc CA-SFM 2011): Susceptible
EUCAST Interpretation ([7]; Cc EUCAST 2011): Susceptible
Results ([7]; Table D1, from MIC): Susceptible
Results ([8]; Table F1, MIC): Susceptible
CA-SFM Interpretation ([8]; from MIC, Cc CA-SFM 2011): Susceptible
EUCAST Interpretation ([8]; from MIC, Cc EUCAST 2011): Susceptible
CA-SFM Interpretation ([9]; Cd CA-SFM 2011): Susceptible
EUCAST Interpretation ([9]; Cd EUCAST 2011): Susceptible
Diameter ([9]; Table E1): 29 mm
Results ([9]; Table E1, against Dmin Dmax): Susceptible
diameter in mm ([9]; Table E2): 29 mm
